Paper PMC9166630, “SAR Probing of KX2-391 Provided Analogues With Juxtaposed Activity Profile Against Major Oncogenic Kinases” (Frontiers in Oncology, 2022)
Where two headings read alike, the source gives them in different places.

Experiments:
HL60 leukemia cell line = experiment: CellTiter-Blue cell viability assay, HL60; assay type: cell-based; details: Homo sapiens, HL-60; CellTiter-Blue, 48 h; maximum tested concentration 20 µM; read-out: IC50 ± SEM, HL60
Procedure: (§1) HL60, K562, MV4-11 and NB4 were purchased from CLS Cell Line Service GmbH (Eppelheim, Germany). All cell lines were cultured in RPMI-1640 medium supplemented with 10% fetal bovine serum (FBS) (Thermo Fisher Scientific) and 0.1% ciprofloxacin (2.5mg/ml; Cipla Limited; Mumbai, India), and were maintained at 37°C in the presence of 21% O2 and 5% CO2.
(§2) Cell viability was determined using the CellTiter®-Blue Cell Viability Assay kit (Promega, Madison, WI, USA). Approximately 10^4 cells were counted and plated in a 96-well plate in the presence of test compounds ranging from 0.01 to 10 or 20 µM in triplicate and were incubated for 48 h at 37°C in a humidified incubator. After the incubation period was complete, 20 µL of CellTiter®-Blue Cell Viability Assay reagent was added to each well and incubated for additional 2 h for the development of florescence. Florescence was measured at Ex/Em 540/590 on SpectraMax® i3 Multi-Mode microplate reader (Molecular Devices, LLC; San Jose, CA, USA) and plotted against drug concentration to determine the IC50 of the test compounds. The IC50 was obtained by non-linear regression model using GraphPad Prism 6.07 (GraphPad Software, Inc, USA).

NB4 leukemia cell line = experiment: CellTiter-Blue cell viability assay, NB4; assay type: cell-based, human; details: CellTiter-Blue, 48 h, maximum tested concentration 20 µM, read-out: IC50 ± SEM, NB4
Procedure: as §1, §2

[1] = Stability in mouse liver microsomes; assay type: in vitro ADME; details: for half-life: male, CD-1, mouse liver microsomes with NADPH, 37°C, read-out: Stability MLM t1/2; for Mic. Ctrl. Mouse % 60 min: mouse liver microsomes, no NADPH added
Procedure: Both mouse and human liver microsomes were obtained from Merck KGaA, (Darmstadt, Germany), Cat. No. M9441 (Mouse liver microsomes) and M0317 (Human liver microsomes). Assays were conducted in triplicate in 96-deep well polypropylene plates. […] At five time points, reaction mixture aliquots were transferred to 96-shallow well stop plates on ice containing acetonitrile with 0.1 µM propafenone. […] Standard curves for test compound were generated using 5 concentrations in triplicate that were processed as above but with zero incubation time. Stop plates were centrifuged at 2000 g for 10 min and then supernatant aliquots were transferred to a Waters Aquity® UPLC 700 µL 96-well sample plate with cap mat (Waters, Milford, MA). The amount of compound remaining in the supernatant was quantified by LC/MS/MS using a Waters Xevo TQ MS (electrospray positive mode) coupled to a Waters Aquity® UPLC (BEH column, C18). Propafenone was used as the internal standard. GraphPad® Prism v 5.04 was used for nonlinear fitting of time course data to generate t1/2 values.

[2] = system: MCF7 (breast) cancer cells; experiment: SRB cytotoxicity assay, MCF7; assay type: cell-based, human; details: Homo sapiens, MCF7, 72 h, maximum tested concentration 50 µM, read-out: IC50 ± SEM, MCF7
Procedure: MCF7 (breast) or N87 (stomach) cancer cells were grown in Roswell Park Memorial Institute-1640 (RPMI-1640) medium (Thermo Fisher Scientific, Inc; Waltham, MA, USA), supplemented with 10% heat inactivated fetal bovine serum (FBS), 50 units/mL of penicillin and […] of streptomycin and maintained at 37°C in a humidified atmosphere containing 5% CO2. The cells were maintained as “monolayer culture” by serial subculturing.
Cytotoxicity was determined using Sulforhodamine B (SRB) method as previously described by Skehan et al. ([66]). Exponentially growing MCF7 and N87 cells were collected using 0.25% Trypsin-EDTA and were then seeded in 96-well plates at a density of 1000-2000 cells/well in 10% FBS and penicillin/streptomycin supplemented RPMI-1640 medium. After 24 h, cells were treated with different concentrations of test compounds and incubated for 72 h at 37°C in a humidified atmosphere containing 5% CO2. Next, the cells were fixed by adding trichloroacetic acid (TCA, 10% final conc. in wells) directly to the wells and incubated for 1 h at 4°C, then cells were washed with distilled water 5 times to remove excess TCA, media, serum proteins, and metabolites, followed by air drying. After that, the fixed cells were stained with 0.4% SRB dissolved in 1% acetic acid for 10 min at room temperature, and excess stain was removed by quickly rinsing with 1% acetic acid. The residual acetic acid was removed completely by air drying the plates for 24 h, and the dye was solubilized with Tris buffer (pH= 7.4, 10 mM) for 5 min on a shaker at 1600 rpm. The optical density (OD) of each well was measured spectrophotometrically at 564 nm with an ELISA microplate reader (ChroMate-4300, FL, USA). The IC50 values (concentration of drug resulting in 50% reduction in cell survival) were calculated according to the equation for Boltzman sigmoidal concentration–response curve using the nonlinear regression fitting models (Graph Pad, Prism Version 5).

In the case of `O=C(Cc1ccc(NC(=O)c2cccc(Cl)c2)cc1)NCc1ccccc1` [Compound 4e, N-(4-(2-(benzylamino)-2-oxoethyl)phenyl)-3-chlorobenzamide], the IC50 (HL60 leukemia cell line) is reported as 1620 ± 130 nM, the IC50 (NB4 leukemia cell line) is reported as 940 nM and the IC50 (NB4 leukemia cell line; Homo sapiens) is reported as 960 nM. The half-life [1] was > 60 min, the “Mic. Ctrl. Mouse % 60 min” value [1] was 73% and the IC50 [2] was 7410 ± 2800 nM.
With `O=C(Cc1ccc(NC(=O)c2cccc(Cl)n2)cc1)NCc1ccccc1` [Compound 4n, N-(4-(2-(benzylamino)-2-oxoethyl)phenyl)-6-chloropicolinamide] the IC50 (HL60 leukemia cell line) was 2220 ± 60 nM, the IC50 (NB4 leukemia cell line; Homo sapiens) was 1540 ± 660 nM and the half-life [1] was 3.1 min. For the same molecule, the “Mic. Ctrl. Mouse % 60 min” value [1] was 5.0% and the IC50 [2] was 250 nM.
